Test results reported in patent US6521662B2, “Ceramide-like compounds having antioxidant property and a method for preparation thereof, and a cosmetic composition containing the same” (Pacific Corporation, priority 2000, dated 2003).

Experiments:
[1] = Solubility of natural ceramide and ceramide-like compounds in cosmetic solvents; assay type: physicochemical; settings: 20° C.; dissolved at 80° C. then cooled to 20° C.
Experimental: The solubility of a natural ceramide and of ceramide-like compounds:
Ceramide Type 3 represented by the following formula (III) has been mainly used in cosmetics. Accordingly, in this experiment were compared solubility of the ceramide Type 3 (obtained from bovine brain) and the ceramide-like compounds of Examples 1 to 3 in various solvents such as ethanol, which have been widely used in cosmetics. Samples were dissolved in the solvents of 80° C. then cooled to 20° C.

[2] = Anti-oxidative activity using DPPH; settings: 37° C. for 30 minutes; UV spectrophotometer
Experimental: Anti-oxidative activity using DPPH
Diphenylpicrylhydrazyl(DPPH) has been known as a radical reaction inhibitor which is stabilized by the radical reaction. Also, it has a chromophoric property with compounds having anti-oxidative activity. Therefore, this experiment utilized the above property.
About 50 ml of DPPH was introduced into the test tube. And samples were added dropwise thereto. After addition, the test tube was maintained in constant temperature bath of 37° C. for 30 minutes. The extent of color development was measured by UV spectrophotometer.

[3] = Anti-oxidative activity using linoleic acid; settings: ammoniumthiocyanate, after 3 minutes, lower absorbance means higher anti-oxidative activity
Experimental: Anti-oxidative activity using linoleic acid
Linoleic acid is easily oxidized to be peroxide due to double bond contained therein. Therefore, this experiment utilized the above property.
The control solution employed in this experiment was prepared by adding 2.88 ml of 2.5% linoeic acid in ethanol and 9 ml of 40 mmol phosphate buffer(pH 7.0) to 200 ml of ethanol. This control solution was maintained in the dark of 40° C. And, sample solutions were prepared by adding 9.7 ml of 75% ethanol, 0.1 ml of 30% ammoniumthiocyanate and 0.1 ml of each sample, to 0.1 ml of the control solution. After 3 minutes, the absorbance was measured at 500 nm by using a UV spectrophotometer. Lower absorbance value means higher anti-oxidative activity.

Compound	Solubility in Cetyl octanoate [1] [% wt/wt %]	Solubility in Ethanol [1] [% wt/wt %]	Solubility in Isopropyl palmitate [1] [% wt/wt %]	Solubility in Octyl Palmitate [1] [% wt/wt %]	Solubility in Octyl dodecanol [1] [% wt/wt %]	Color development with DPPH (Experiment Example 5-1) [2]	Absorbance at 500 nm (Experiment Example 5-2) [3]
Cc1c(C)c2c(c(C)c1OC(=O)CCC(=O)N(CCO)CC(O)CN(CCO)C(=O)CCC(=O)Oc1c(C)c(C)c3c(c1C)CCC(C)(CCCC(C)CCCC(C)CCCC(C)C)O3)CCC(C)(CCCC(C)CCCC(C)CCCC(C)C)O2 (stereo not drawn) [Example 1, 1,3-bis(N-(2-hydroxyethyl)-α-tocopherylsuccinoylamino) -2-hydroxypropane]	>5	>5	>5	>5	>5	Brown	0.23
Cc1cc(OC(=O)CCC(=O)N(CCO)CC(O)CN(CCO)C(=O)CCC(=O)Oc2cc(C)c3c(c2)CCC(C)(CCCC(C)CCCC(C)CCCC(C)C)O3)cc2c1OC(C)(CCCC(C)CCCC(C)CCCC(C)C)CC2 (stereo not drawn) [Example 2, 1,3-bis(N-(2-hydroxyethyl)-δ-tocopherylsuccinoylamino) -2-hydroxypropane]	>5	>5	>5	>5	>5	Brown	0.29
CC(=O)Oc1c(C)c(C)c2c(c1C)CCC(C)(CCC[C@H](C)CCC[C@H](C)CCCC(C)C)O2 (stereo partly drawn) [Vitamin E acetate, reference compound]						No color change	0.44
Vitamin E [reference compound]						No color change	0.23

Further lines, with some results ahead:

Solubility in Cetyl octanoate [1] [% wt/wt %]	Solubility in Ethanol [1] [% wt/wt %]	Solubility in Isopropyl palmitate [1] [% wt/wt %]	Solubility in Octyl Palmitate [1] [% wt/wt %]	Solubility in Octyl dodecanol [1] [% wt/wt %]	Compound	Color development with DPPH (Experiment Example 5-1) [2]	Absorbance at 500 nm (Experiment Example 5-2) [3]
>5	>5	>5	>5	>5	Cc1c(OC(=O)CCC(=O)N(CCO)CC(O)CN(CCO)C(=O)CCC(=O)Oc2cc3c(c(C)c2C)OC(C)(CCCC(C)CCCC(C)CCCC(C)C)CC3)cc2c(c1C)OC(C)(CCCC(C)CCCC(C)CCCC(C)C)CC2 (stereo not drawn) [Example 3, 1,3-bis(N-(2-hydroxyethyl)-γ-tocopherylsuccinoylamino)-2-hydroxypropane]	Brown	0.30
<1	<1	<1	<1	<1	CCCCCCCCCCCCCCCCCCCCCCCC(=O)NC(CO)C(O)C(O)CCCCCCCCCCCCCC (stereo not drawn) [Natural Ceramide (type 3), reference compound]		
